Series [1] deals with 8226/Dox cells. As to the kind of experiment: Sensitization of 8226/Dox cells to doxorubicin by MDR-oligos (tritiated thymidine uptake). The conditions noted are these: for IC50: read-out: IC50 dose. Format: cell-based, human. On the procedure:
Multidrug resistant tumor cells were incubated with 15 μM of OL(6)mdr oligo, Cohen(1)mdr oligo or a negative-control (HIV-2) oligo for 4 days at 37° C. in a humidified incubation chamber. Varying doses (5-fold serial dilutions) of doxorubicin (from 1×10^-5 M to 1×10^-8 M) were then added to the culture wells after the cells had been subcultured into media without oligos; cells were then incubated in the same culture environment for an additional three days. Radiolabeled (tritiated) thymidine was added to all cultures for 24 hr before harvest. Each data point is the mean of 4 replicates.

Series [2] deals with 8226/Dox human myeloma cells. The series is described as follows: Sensitivity of 8226/Dox cells to Vincristine with increasing time after Vincristine exposure. Format: cell-based. Particulars: for IC50: Homo sapiens; for Relative Sensitization (fold increase) Day 5: Day 5 after Vincristine exposure; for Relative Sensitization (fold increase) Day 7: Day 7 after Vincristine exposure; for Relative Sensitization (fold increase) Day 9: Day 9 after Vincristine exposure. The method, then:
As shown in this example, several oligos which target the MDR1 gene are able to sensitize multidrug-resistant cell lines to the cytotoxic effects of the chemotherapeutic agent Vincristine. […] The cells were then washed and seeded into 96-well plates (quadruplicate replicates) for pulsing with tritiated thymidine 3 days later. Cells were harvested the next day (=4th day after drug treatment). Tritiated thymidine uptake was analyzed by liquid scintillation.
As shown in this example, it was determined that there was an increase in sensitivity of multidrug-resistant 8226/Dox human myeloma cells to Vincristine with increasing time of incubation following initial exposure to Vincristine. The experimental conditions were identical to those utilized in obtaining the data shown in Table 7, except that the present experiment had two additional time points.

The test system of another series is 8226/Dox4 cells. The series is described as follows: Parsimonious regression model estimates of count and Vincristine IC50. Format: cell-based, human. Particulars: Homo sapiens, read-out: Estimated IC50. The method, then: (§1) In vitro testing of MDR-Oligonucleotides was done on the multidrug-resistant (MDR+) RPMI-8226/Dox4 human multiple myeloma cell line (gift of Dr. William Dalton, Univ. Arizona Cancer Ctr., Tucson). Cells were incubated in vitro for 4 days at 37° C. with MDR-oligos at 0.2 μM final concentration; pulsed 18 hr with serial 5-fold dilutions of chemotherapeutic drug (vincristine) from 1×10^-4 M to 2×10^-10 M. Cells were then washed, and incubated for an additional 4 days. Tritiated thymidine (^3 H-TdR) was added for last 18 hr to measure status of cellular proliferation. Controls included MDR^+ 8226 cells similarly treated with vincristine but pretreated either with (a) control ODNs, or (b) culture medium only.
The following mathematical/statistical model was used to analyze the effects of oligos and various drug treatments on targeted tumor cells in these studies. The model is based on experiments which generally involve treatment of tumor cells with one of several ODNs or media only, and with several dose levels of an anti-cancer agent (such as, for example, vincristine (VCR)) or media only. Analysis goals were to model the relationship of cell kill to the dose of VCR (for example), and to compare the effects of the various ODNs.
This final model contained 10 regressor variables.
Various estimates of parameters from the parsimonious model are shown in TABLE 13, which contains the model estimate of the count for each ODN with media only; differences here (when compared to "media only" [no ODN]) reflect the cell kill associated with the ODN alone. TABLE 13 also contains an estimate of IC50 values, the dose of vincristine (VCR) which is estimated to produce an expected count which is exactly half that expected with "media only" [no VCR]. While formal statistical comparisons of the IC50 values of the various ODNs is not possible, an ordering of the ODNs by estimated IC50 values is possible.

Series [3] concerns 8226/Dox human myeloma cells. The series is described as follows: Sensitization of 8226/Dox cells to Vincristine by MDR-oligos in 5% oxygen. Format: cell-based. The conditions noted are these: for IC50: read-out: IC50 dose. On the procedure:
(§2) As shown in this example, several oligos which target the MDR1 gene are able to sensitize multidrug-resistant cell lines to the cytotoxic effects of the chemotherapeutic agent Vincristine. Tumor cells were treated in vitro with 10 μM of the indicated oligo for 4 days at 37° C., then counted, dispensed into individual tubes, and pulsed with Vincristine at various doses (serial 5-fold dilutions) for 3 hrs. The cells were then washed and seeded into 96-well plates (quadruplicate replicates) for pulsing with tritiated thymidine 3 days later. Cells were harvested the next day (=4th day after drug treatment). Tritiated thymidine uptake was analyzed by liquid scintillation.

Series [4] deals with 8226/Dox cells. As to the kind of experiment: Sensitization of 8226/Dox cells to VCR by MDR-aptameric oligonucleotides. The class given is cell-based, human. The conditions noted are these: Homo sapiens; VCR, Media (no oligo).
Series [5] deals with CEM/VLB10 human leukemia cells. The series is described as follows: Sensitization of CEM/VLB10 cells to Vincristine by MDR-oligos in 5% oxygen. Format: cell-based. The conditions noted are these: for IC50: read-out: IC50 dose. The method, then: as §2
The test system of series [6] is 8226/Dox4 human myeloma cells. As to the kind of experiment: Vincristine IC50 summary after MDR-oligo treatment. The class given is cell-based. The conditions noted are these: Homo sapiens, read-out: Vincristine IC50. On the procedure: as §1
The test system of series [7] is 8226/Dox cells. As to the kind of experiment: Sensitization of 8226/Dox cells to Vincristine by an MRP-oligo and MDR-ODNs. Particulars: for IC50: read-out: IC50 dose. The class given is cell-based, human. On the procedure: as §2
In this example, experimental conditions were identical to those utilized in obtaining the data in Example 2.

The test system of series [8] is A427 human non-small-cell lung adenocarcinoma cell line. The series is described as follows: Sensitization of A427 lung cancer cells to etoposide by MRP-oligos. Format: cell-based. On the procedure:
The human non-small-cell lung adenocarcinoma cell line A427 was treated with oligos at various concentrations for 4 days in vitro. The cells then were pulsed with various concentrations of etoposide (range 1.6×10^-4 to 1×10^-6 M) for 3 hrs. Next, cells were trypsinized and seeded by volume into 96-well plates with 12 replicates per treatment condition. Three days later, tritiated thymidine was added and the cells harvested the next day.

The test system of series [9] is RPMI-8226/Dox4 human multiple myeloma cell line. As to the kind of experiment: Relative activity of MRP-ODNs (summary). The class given is cell-based. Details: key: --: no effect; +: weak positive effect; +++++: strong positive effect.
Setting [10] is: Vincristine IC50 after 4 days with 10 μM oligo, 5% oxygen.
Setting [11] is: to Vincristine, 10 μM oligo, 5% oxygen.

“And” between values parts separate entries of the source, which are not always exact repeats. Identical values can stand only once. Like-named read-outs stand apart in the source and are kept apart here.

In the case of `COc1cccc2c1C(=O)c1c(O)c3c(c(O)c1C2=O)C[C@@](O)(C(=O)CO)C[C@@H]3O[C@H]1C[C@H](N)[C@H](O)[C@H](C)O1` [doxorubicin, reference compound], the IC50 in the series on 8226/Dox cells [1] (Homo sapiens) is 650 nM.

In the case of `CC[C@]1(O)C[C@H]2CN(CCc3c([nH]c4ccccc34)[C@@](C(=O)OC)(c3cc4c(cc3OC)N(C=O)[C@H]3[C@@](O)(C(=O)OC)[C@H](OC(C)=O)[C@]5(CC)C=CCN6CC[C@]43[C@@H]65)C2)C1` [Vincristine, reference compound], the IC50 in [2] (120 h, read-out: IC50 Value on Day 5) is 440 nM; in series [2] (168 h, read-out: IC50 Value on Day 7), 7000 nM; in [2] (216 h, read-out: IC50 Value on Day 9) it was 550000 nM; with 8226/Dox4 cells it was 12800 nM; in [3] (Homo sapiens), 450 nM; in the series with 8226/Dox cells [4] it was 40000 nM. The IC50 in [5] (Homo sapiens) was found to be 10000 nM; in [6], 12000 nM; with 8226/Dox cells [7] (Homo sapiens), 1100 nM.

Turning to “OL(6)mdr: SEQ ID NO 1: CCCACGCCCC GGCGCTGTTC (CCCACGCCCCGGCGCTGTTC; chemistry not given here)”, the IC50 in the series with 8226/Dox cells [1] (doxorubicin IC50 after 4 days with 15 μM oligo, tritiated thymidine uptake) came to 180 nM; in [3] (setting [10]) it was 220 nM; in series [5] (setting [10]), 120 nM. Besides, the “Relative sensitization (fold increase)” value was found to be 3.6 fold increase in the series on 8226/Dox cells [1] (to doxorubicin, 15 μM oligo, vs medium only); 2.5 fold increase in [3] (setting [11]); 83 fold increase in series [5] (setting [11]). Also, the “Relative Sensitization (fold increase) Day 5” value in series [2] (oligo 2 μM) turned out to be 1.6 fold increase; in series [2] (oligo 10 μM), 1.8 fold increase. The “Relative Sensitization (fold increase) Day 7” value in series [2] (oligo 2 μM) is on record as 3.5 fold increase; in series [2] (oligo 10 μM) it was 15.9 fold increase. Further, the results for the “Relative Sensitization (fold increase) Day 9” value in [2] (oligo 2 μM) and in [2] (oligo 10 μM) were 61 fold increase and 550 fold increase, respectively. Moreover, the “Etoposide (VP-16) Relative Sensitization (fold increase)” value in series [8] (oligo 1 μM) amounted to 0 fold increase; in series [8] (oligo 2.5 μM), 0 fold increase; in series [8] (oligo 5.0 μM) it was 1.2 fold increase; in [8] (oligo 10 μM), 1.6 fold increase.

On to “OL(8)MRP: SEQ ID NO 64: GCGGGATGAT GATGGCGGCG (GCGGGATGATGATGGCGGCG; chemistry not given here)”, for which the “Relative Activity” value in [9] is recorded as “+++++”. In addition, in the series with 8226/Dox cells [7] (Vincristine IC50 after oligo treatment, conditions as Example 2), the IC50 amounted to 55 nM. Further, the “Relative sensitization (fold increase)” value in the series on 8226/Dox cells [7] (to Vincristine, vs medium only) was found to be 20 fold increase. The “Etoposide (VP-16) Relative Sensitization (fold increase)” value was 2.0 fold increase in series [8] (oligo 2.5 μM); 3.6 fold increase in [8] (oligo 5.0 μM); 18 fold increase and 18.0 fold increase in series [8] (oligo 10 μM).
